Reference: patent US12544348B2, “Methods for treating APOE4/4-associated disorders” (The Regents of the University of California, priority 2018, dated 2026)

Test system: hippocampal slices from apoE4-KI mice
Assay: Brain slice electrophysiological recordings (LTP, input-output) after in vivo treatment
Settings: 0.2 mg/kg for 8 weeks
Source text: Brain slice electrophysiological recordings and data analyses. For long-term potentiation (LTP) recording study, apoE4-KI mice were randomly allocated to vehicle (n=6, age 15.2±0.56 months) and bumetanide (n=3, age 15.1±0.06) treatment groups. ApoE3-KI mice were similarly allocated into vehicle (n=6, age 15.5±0.11) and bumetanide (n-3, age 15.57±0.19) treatment groups. For input/output recording study, apoE4-KI mice were randomly allocated to vehicle (n=3, age 15.1±0.06 months) and bumetanide (n=3, age 15.1±0.06) treatment groups. ApoE3-KI mice were similarly allocated into vehicle (n=7, age 15.3±0.06) and bumetanide (n=3, age 15.57±0.29) treatment groups. […]
Field post-synaptic potentials (fPSPs) were elicited by orthodromic stimulation of Schaffer collaterals by concentric bipolar stimulating electrode (FHC, Inc., USA) connected to a constant voltage isolated stimulator (DS2A-MKII, Digitimer North America) and placed in CA2 stratum radiatum. fPSPs were recorded with a glass borosilicate microelectrode filled with ACSF and placed in CA1 stratum radiatum. Signals were sampled and digitized by MultiClamp 700B amplifier and Digidata 1550B1 acquisition system with pClamp10 software (Molecular Devices, USA), and analyzed using IgorPro6 software (Wavemetrics Inc., USA) running custom macros. fPSP slopes were analyzed as the linear fit slope values between 10% and 90% of fPSP peak. […]

CCCCNc1cc(C(=O)O)cc(S(N)(=O)=O)c1Oc1ccccc1 [bumetanide, 3-(butylamino)-4-phenoxy-5-sulfamoylbenzoic acid]
long-term potentiation (LTP) in CA1 region of hippocampal slices (aged (16-month-old) apoE4-KI mice, theta burst stimulation): completely rescued LTP deficit
neuronal hyperexcitability in CA1 region (input-output curve analysis) (aged apoE4-KI mice): normalized
